Reference: article PMC4361473, “A New System for Profiling Drug-Induced Calcium Signal Perturbation in Human Embryonic Stem Cell–Derived Cardiomyocytes” (Journal of Biomolecular Screening, 2015)

Experiments:
Cytiva hSCCMs [1] = assay: SALVO profiling of drug-evoked Ca2+ signal perturbation (fluo-4 confocal imaging); settings: for EC20 AHI: 20% change from control in amplitude heterogeneity index; for EC20 AHI / EC20 Synch / EC20 ITN / EC20 THI / EC20 Rate: regression of Figure 3 data; for EC20 Synch: 20% change from control in intercellular synchronization; for EC20 ITN: 20% change from control in intertransient noise; for EC20 THI: 20% change from control in temporal heterogeneity index; for EC20 Rate: drug concentration producing a 20% change from control (no drug) in Ca2+ oscillation rate; for SALVO toxicity score, rank order of the extent of Ca2+ perturbation: five-parameter SALVO output integrated over 0.1-1000 nM, normalized to control; for Effect on Ca2+ handling (SALVO parameters): spontaneously oscillating Cytiva, concentrations up to 30 µM
Description: Cytiva hSCCMs were derived from monolayer differentiation of an H7 hESC cell line that had been expanded under feeder-free conditions and then subjected to a proprietary differentiation protocol (GE Healthcare, Piscataway, NJ, USA).[13] […] Cells were thawed and seeded into 7-mm^2 chambers created by the adherence of silicon gaskets (CultureWell MultiWell 3 mm in diameter, 1-mm-depth inserts [Life Technologies]) on glass-bottomed culture chambers (In Vitro Scientific, Sunnyvale, CA, USA) that had been precoated with Matrigel (BD Biosciences, Franklin Lakes, NJ, USA), Franklin Lakes, NJ, USA diluted 1:30 (v/v) in Knockout DMEM (Life Technologies, Carlsbad, CA, USA). […] Cells were allowed to adhere to the coverslip for 2 h before the dish was filled with RPMI/B27 (2 mL). Medium was exchanged every 48 h.
Cells were incubated with fluo-4 AM (5 µM) (Life Technologies) for 1 h at 37°C before coverslips were flooded with RPMI/B27 (2 mL). […] Cells were maintained at 37 °C throughout experiments. […] The application of caffeine (5 mM final concentration) was used to trigger sarcoplasmic reticulum (SR) Ca^2+ release and thereby estimate the intra-SR Ca^2+ store load.
Taking our lead from Uhlen’s method of using spectral analysis to investigate the organization of Ca^2+ signals,[14] we developed SALVO to decode the spatiotemporal patterning of Ca^2+ oscillations within individual cells and across multicellular populations. SALVO outputs 30 parameters that describe Ca^2+ signal organization,[15] but for the purposes of this study, we focused on five parameters: oscillation rate (rate, Hz) and four other parameters that quantify the amplitude and temporal patterning of Ca^2+ oscillation: (1) amplitude heterogeneity index (AHI) and (2) temporal heterogeneity index (THI), statistical assessments of signal amplitude and temporal variability within single cells, respectively; (3) intertransient noise (ITN), defined as the Ca^2+ signal variability occurring between Ca^2+ oscillations and that extends the use of signal variability (SV) to measure point-by-point differences in very low-amplitude Ca^2+ signals[6],[10],[12]; and (4) synchronization, an index of the temporal coincidence of Ca^2+ oscillation maxima occurring across cells in the population. The calculation of these parameters is described in Supplementary Figure S1. SALVO is implemented using a Python-based computer program.[15] The detection of signal maxima and minima over a 30-s period in data obtained from 6 to 20 cells in each instance was performed using SALVO’s autodetection algorithms (based on spline detect or threshold detection methods) or by manual assignation of the start, peak, and end of each Ca^2+ spike. SALVO outputs were archived and interrogated using a custom-built SQL-based database system (DB Miner, CHG, NCS, SBJ).
Baseline assessments of Ca^2+ signals in fluo-4–loaded cells prior to the addition of drug (control) were established as described above.
After each addition and following a period of equilibration (approximately 90 s), fluo-4–dependent Ca^2+ signals were acquired for 30 s. Using this protocol, the same population of cells was imaged throughout the entire drug addition sequence.
In all experiments, operators were blinded to the identities of the drugs under test throughout all phases of postexperimental data analysis.
Supplementary Table 2. EC20 values for Ca2+ perturbation.
Drug concentrations (nM) that produced a 20% change from control values (no drug) were calculated for each SALVO parameter from regression analysis of […]
The effective therapeutic plasma concentration of free drug (ETPCunbound, nM) was calculated in Supplementary Table 1.
Calculate percentage effect size (E) for each SALVO parameter, normalized to Ew = E x λ control conditions, at each drug concentration Effect size (E,%) λ
Cumulative Ew for drug concentrations of 0.1, 1, 10, 100 and 1000 nM for The relationship between E and λ is given by […]

[2] = maximal effective therapeutic plasma concentration; ref Redfern et al. (2003) Cardiovasc. Res. 58:32-45; cited from earlier work
[3] = Effective therapeutic plasma concentration (ETPC, ETPCunbound); assay type: in vivo, human
Description: There is also the issue regarding the relevance of drug potency determined in vitro to clinical dosing in humans. Guo and colleagues[25],[27] used an impedance-derived index of arrhythmic beating in hSCCMs to derive a predicted proarrhythmic score (PPS) that took into account the therapeutically relevant total concentration of drug in human plasma (defined as Ceff). More recently, Clements and Thomas[13] used a similar approach to generate a predictive risk score (PRS) based on their measurement of field potential duration (FPD) in Cytiva.
Supplementary Table 1. Calculating the free plasma concentration of […]
described by Redfern et al. (Redfern et al. (2003) Cardiovasc. Res. 58:32-45) was used to calculate the levels of free drug (ETPCunbound). ETPC for nadolol and valdecoxib were from Krukemyer et al. (Pharm. Res. (1990) 9:953-956) and Yuan et al. (Drug Metab. Disp. (2002) 30:1013-1021), respectively. The values for drug-protein binding were obtained from DrugBank (www.drugbank.ca).

Cytiva hSCCMs [4] = assay: Whole-cell current-clamp recording of spontaneous action potentials (APD90); assay type: cell-based, human; settings: drug at EC20 concentration, 3 min; Fridericia-corrected; blebbistatin-immobilized cells
Procedure: Cells in 35-mm glass-bottomed culture dishes containing a superfusion insert (AutoMate PCP-1; Digitimer Ltd., Welwyn Garden City, UK) were mounted on the stage of an inverted microscope (CKX-41; Olympus, Tokyo, Japan) and were superfused with normal Tyrode (NT) solution (containing [in mM] NaCl, KCl, MgCl2 [1], CaCl2 [2], HEPES [10], glucose; pH 7.4 with NaOH) or NT-containing drugs maintained at 37 °C using a heated jacket.
Cells were whole-cell clamped with 3- to 4-MΩ patches and an intrapipette solution (containing in [mM] KCl, MgCl2 [1.75], CaCl2 [5.37], EGTA [10], HEPES [10], and Na2ATP [4]; pH 7.2 with KOH) in current-clamp (IC) mode using a CV-7B headstage and MultiClamp 700B amplifier controlled by MultiClamp software (Molecular Devices, Sunnyvale, CA). Data were digitized and acquired using a Digidata 1322a card and pClamp software, respectively (Molecular Devices). Action potentials were sampled at a rate of 20 kHz and low pass (Bessel) filtered at 10 kHz.
Spontaneous cell contracture was terminated using blebbistatin (5 µM, 10 min), an agent that inhibits myofilament shortening and thereby negates patch-clamp recording instability but preserves normal Ca^2+ cycling.[20] […] Action potential (AP) recordings from blebbistatin-immobilized cells were taken under control (no-drug) conditions (1 min) and following the switch to drug-containing NT. APD90, corrected for AP cycle length using Fridericia’s method (APD90(corr) = APD90/cycle length^[…]), was calculated from five consecutive APs following a 3-min exposure of the cells to drug.
Figure 4. Investigating the effect of cardiovascular-active drugs on Cytiva APD90. (A) Cells were exposed to drugs at EC20 concentrations for 3 min (Suppl. Table S2). APD90 values were corrected for beat period using Fridericia’s algorithm. Data points represent individual paired experiments (n = 6). Representative control (gray) and drug-treated (black) action potential traces are shown. (B) APD90 plotted as the percentage change relative to the paired control value (no drug). *p < 0.05. **p < 0.01.

[5] = design: method as in DrugBank (www.drugbank.ca); settings: from drug-protein binding values; ref DrugBank (www.drugbank.ca); cited from earlier work
[6] = categories assigned by Redfern and colleagues; cited from earlier work
hSCCM = system: hSCCM; design: method as in PMID 24052561; settings: cited from earlier work
[7] = free plasma concentration calculated from ETPC and free drug %, Supplementary Table 1

For `COc1ccc(CCN2CCC(Nc3nc4ccccc4n3Cc3ccc(F)cc3)CC2)cc1` [Astemizole, astemizole], which “EC20 AHI” value (Cytiva hSCCMs [1]) is on record?
The value was 100 nM.

And the “EC20 Synch” value (Cytiva hSCCMs [1])?
Its value is 15 nM.

What about the “EC20 ITN” value (Cytiva hSCCMs [1]) of the same molecule?
Its value is 320 nM.

And the “EC20 THI” value (Cytiva hSCCMs [1])?
The value was 55 nM.

What about the “Predicted proarrhythmic score (PPS)” value (Cytiva hSCCMs [1]; PPS = ETPCunbound/EC20) of the same molecule?
The value was < 1.

What about the “EC20 Rate” value (Cytiva hSCCMs [1]) of the same molecule?
The value was 50 nM.

What about the “SALVO toxicity score, rank order of the extent of Ca2+ perturbation” value (Cytiva hSCCMs [1]) of the same molecule?
Its value is “astemizole > thioridazine > cisapride > flecainide > valdecoxib > sotalol > nadolol”.

And the “Effect on Ca2+ handling (SALVO parameters)” value (“Effect on Ca2+ handling” below) (Cytiva hSCCMs [1])?
The value was “large effect sizes in multiple parameters”.

What about the ETPC [2] of the same molecule?
The ETPC was 8 nM.

And the ETPCunbound ([3]; effective therapeutic plasma concentration of free drug, as listed in Supplementary Table 2)?
Its ETPCunbound is 8 nM.

What about the ETPCunbound [3, 7] of the same molecule?
The ETPCunbound was 0.2 nM.

And the “Effect on APD90 (action potential duration)” value (Cytiva hSCCMs [4])?
The value was “increased APD90”.

And the Free drug [5]?
Its Free drug is 2%.

What about the TdP risk category [6] of the same molecule?
Its TdP risk category is “category 2”.

Which “EC20 AHI” value (Cytiva hSCCMs [1]) does the source give for `COc1cc(N)c(Cl)cc1C(=O)NC1CCN(CCCOc2ccc(F)cc2)CC1OC` (centres unmarked) [Cisapride, cisapride] here?
Its value is 40 nM.

And the “EC20 Synch” value (Cytiva hSCCMs [1])?
The value was 5 nM.

And the “EC20 ITN” value (Cytiva hSCCMs [1])?
Its value is > 30000 nM.

And the “EC20 THI” value (Cytiva hSCCMs [1])?
The value was 105 nM.

What about the PPS rank order (Cytiva hSCCMs [1]; PPS = ETPCunbound/EC20) of the same molecule?
The PPS rank order was “thioridazine > cisapride > valdecoxib”.

And the “EC20 Rate” value (Cytiva hSCCMs [1])?
Its value is 445 nM.

What about the “SALVO toxicity score, rank order of the extent of Ca2+ perturbation” value (Cytiva hSCCMs [1]) of the same molecule?
The value was “astemizole > thioridazine > cisapride > flecainide > valdecoxib > sotalol > nadolol”.

What about the “Effect on Ca2+ handling” value (Cytiva hSCCMs [1]) of the same molecule?
Its value is “large effect sizes in multiple parameters”.

And the ETPC [2]?
Its ETPC is 129 nM.

And the ETPCunbound [3, 7]?
The ETPCunbound was 3 nM.

What about the “Effect on APD90 (action potential duration)” value (Cytiva hSCCMs [4]) of the same molecule?
Its value is “increased APD90”.

What about the Free drug [5] of the same molecule?
The Free drug was 2%.

What about the TdP risk category [6] of the same molecule?
Its TdP risk category is “category 2”.

Which “Effect on Ca2+ handling” value (Cytiva hSCCMs [1]) does the source give for `CS(=O)(=O)c1ccc(C2=C(c3ccccc3)C(=O)OC2)cc1` [rofecoxib] here?
The value was “inconsistent bioactivity”.

And the “Hazard identification by impedance measurements” value (hSCCM)?
Its value is “failed to identify the potential hazard”.
